Tests used:
MRSA USA 400 biofilms = experiment: Treatment of an existing biofilm; type: cell-based, Staphylococcus aureus
Experimental: For the treatment of MRSA USA 400 biofilms, the same 96 well plate assay procedure was used as described in the biofilm inhibition section above. However, the MRSA USA 400 inoculum (10^8 CFU/mL) grew overnight at 37° C. in the absence of BM3103 and without shaking. After 24 h of biofilm formation, BM3103 was serially diluted across a 96 well plate from of 1 mM to 0.002 mM. The plate was incubated again overnight at 37° C. without shaking.

S. typhimurium TA98 = experiment: Dose range finding colony forming assay, strain TA98 with metabolic activation; type: cell-based
Experimental: A series of dose range finding assays were performed with five bacterial strains, S. typhimurium TA97a, TA98, TA100, TA1535, and E. coli WP2 uvrA pKM101, with and without metabolic activation at three plates per dose. The following doses, along with positive and negative controls, were tested: 5000, 2500, 1250, 500, 250, 125, 50, 20, 10, 5, 2, 1, and 0.2 μg/plate. The plates were evaluated for toxicity (a decrease in plate counts with increasing dose and/or a visible thinning of the background lawn) and for precipitation of the test article. Metabolic activation was included in some samples by adding phenobarbital/benzoflavone-induced rat liver S9 fractions with cofactors (S9 mix). Prior to use, freshly thawed aliquots of rat liver S9 were mixed with a sterile cofactor mix. The S9 mix contains a 10% liver S9 concentration and was refrigerated or stored on ice until used. When testing with metabolic activation, the S9 mix was used in the assay tube in place of phosphate buffer.
Dosing formulations were prepared to deliver all doses in a constant volume of 0.1 mL. The highest dose was prepared from test article weighed to the nearest 0.1 mg and the remaining formulations were prepared as serial dilutions from the high dose stock formulation. Using a permanent marking pen or computer printed labels, assay plates were labeled with the project and study numbers and the date. Assay plates and tubes were labeled with a unique identifier, which was used to match the assay tubes with the properly identified minimal glucose agar plate.
The pre-incubation method was used to perform the assay. The assay mix consisted of 0.1 mL of the test article formulation or control article, 0.5 mL S9 mix or phosphate buffer, and 0.1 mL of bacterial culture. Assay tubes were incubated at 37±1° C. with gentle agitation for 20±1 minutes, then 2.0-2.5 mL top agar was added to the assay mix and the top agar/assay mix poured onto appropriately labeled minimal glucose agar plates. Once the top agar hardened, the plates were inverted and incubated at 37±1° C. for 48±2 hours. Plates were counted with the Sorcerer (v. 2.2)/Ames Study Manager (v. 1.2.4) system from Perceptive Instruments (Suffolk, UK). With this system, plate counts are automatically transferred from the plate imager (Sorcerer) to a Study Manager spreadsheet, and the data are stored in a secure manner on an Oracle database. Some plates were hand counted, e.g., if sample precipitate interferes with automatic counting or toxicity results in the formation of microcolonies, in which case, counts for these plates were entered into the spreadsheet manually. Plates were scored also with the extent of colonization by a post fix code.

[1] = test system: Candida albicans ATCC 64550; experiment: Colony forming assay, spread plate, Candida albicans; type: cell-based; settings: Formulation C, compared to low dose, vehicle, Tobramycin and untreated control, 24 h, FIG. 8
Experimental: (§1) A fresh culture of pathogenic isolate was used in these examples. The bacterial strains used were Methicillin Resistant Staphylococcus aureus (MRSA USA 300), Pseudomonas aeruginosa ATCC 27312, and Candida albicans ATCC 64550.
(§2) FIG. 5 illustrates the spread plate method used in these examples. In sum, agar plates were made, bacteria were diluted to 10^6 or 10^8 CFU/mL, bacteria and drug were mixed together and then plated. Glass spreading beads were used because they give a better bacterial spread. Plates were incubated for 24 hrs then the colonies that formed were counted.
Proliferating cultures of Pseudomonas aeruginosa (PA, ATCC 27312) and Candida albicans (CA, ATCC 64550) were used in a colony forming assay. Freeze-dried bacteria cultures were recovered by swabbing a 3-cm diameter growth area and resuspending it to obtain a final inoculum suspension of approximately 10^6 CFU/mL. The concentration was confirmed using historical optical density measurements. […] Plates were photographed and counted. […]
Colony counts for each treatment were tabulated and the Log of the colony forming units/mL (Log CFU/mL) were determined. The mean and standard deviation of the Log CFU/mL were calculated for each treatment. […]

[2] = test system: Pseudomonas aeruginosa ATCC 27312; experiment: Colony forming assay, spread plate, Pseudomonas aeruginosa; type: cell-based; settings: for Reduction of PA counts: compared to vehicle, Tobramycin and untreated control
Experimental: as §1, §2
Proliferating cultures of Pseudomonas aeruginosa (PA, ATCC 27312) and Candida albicans (CA, ATCC 64550) were used in a colony forming assay. Freeze-dried bacteria cultures were recovered by swabbing a 3-cm diameter growth area and resuspending it to obtain a final inoculum suspension of approximately 10^6 CFU/mL. The concentration was confirmed using historical optical density measurements. Before bacteria challenge, the tolan compound BM3103 was suspended in 100% diethylene glycol monoethyl ether (Formulation C) with vehicle control consisting solely of the diethylene glycol monoethyl ether. Before plating, 100 μL of the final inoculum (10^6 CFU/mL) was mixed with 200 μL LB broth and 200 μL of BM3103 doses, vehicle, positive control (Tobramycin, 12 μg/mL for PA and 160 μg/mL for CA), or untreated control (phosphate buffered saline). The final plating concentration for the high, middle, and low BM3103 doses were 0.5%, 0.25%, and 0.1% w/v (22 mM, 11 mM, and 4 mM), respectively. The inoculum was plated on agar with centrimide and nalidixate (CN) supplement for PA (though sodium nalidixate or nalixic acid could also be used), and on Tryptic Soy Broth plates for CA experiments, at 37° C. for 24 h. Plates were photographed and counted. The experiment was done in triplicate.
Colony counts for each treatment were tabulated and the Log of the colony forming units/mL (Log CFU/mL) were determined. The mean and standard deviation of the Log CFU/mL were calculated for each treatment. […] The medium and low dose groups reduced PA counts when compared to the vehicle, Tobramycin, and untreated control groups by about 5-fold.

COc1ccc(C#Cc2ccc(O)cc2)cc1 [BM3103, 4-hydroxy-4′-methoxytolan] was tested, and the “Reduction of established MRSA USA 400 biofilm” value (MRSA USA 400 biofilms; 0.008 mM, 24 h treatment of 24 h biofilm, FIG. 14C) was “slight reduction in the biofilm”, the “Reduction of established MRSA USA 400 biofilm” value (MRSA USA 400 biofilms; 0.0625 mM or above, 24 h treatment of 24 h biofilm, FIG. 14B) was “reduced the biofilm of MRSA USA 400 significantly” and the “Reduction of established MRSA USA 400 biofilm” value (MRSA USA 400 biofilms; 0.125 mM, 24 h treatment of 24 h biofilm, FIG. 14A) was “reduced the biofilm of MRSA USA 400 significantly”. The “Reduction of established MRSA USA 400 biofilm” value (MRSA USA 400 biofilms; concentrations below 0.002 mM, FIG. 14D) was “no reduction in the biofilm”, the Colony forming units/plate (S. typhimurium TA98; 1 μg/plate) was 8.0 colony forming units/plate and the Individual colony counts (S. typhimurium TA98; 1 μg/plate) was 8. For the same compound, the Colony forming units/plate (S. typhimurium TA98; 2 μg/plate) was 18.0 colony forming units/plate, the Individual colony counts (S. typhimurium TA98; 2 μg/plate) was 18 and the Colony forming units/plate (S. typhimurium TA98; 5 μg/plate) was 16.0 colony forming units/plate. The Individual colony counts (S. typhimurium TA98; 5 μg/plate) was 16, the Colony forming units/plate (S. typhimurium TA98; 10 μg/plate) was 16.0 colony forming units/plate and the Individual colony counts (S. typhimurium TA98; 10 μg/plate) was 16. The Colony forming units/plate (S. typhimurium TA98; 20 μg/plate) was 0.0 colony forming units/plate, the Individual colony counts (S. typhimurium TA98; 20 μg/plate) was 0 and the Colony forming units/plate (S. typhimurium TA98; 50 μg/plate) was 0.0 colony forming units/plate. The Individual colony counts (S. typhimurium TA98; 50 μg/plate) was 0, the Colony forming units/plate (S. typhimurium TA98; 125 μg/plate) was 0.0 colony forming units/plate and the Individual colony counts (S. typhimurium TA98; 125 μg/plate) was 0. The Colony forming units/plate (S. typhimurium TA98; 250 μg/plate) was 0.0 colony forming units/plate, the Individual colony counts (S. typhimurium TA98; 250 μg/plate) was 0 and the Colony forming units/plate (S. typhimurium TA98; 500 μg/plate) was 0.0 colony forming units/plate. The Individual colony counts (S. typhimurium TA98; 500 μg/plate) was 0, the “Plate postfix code (individual colony counts)” value (shortened to “Plate postfix code”) (S. typhimurium TA98; 500 μg/plate) was “A P” and the Colony forming units/plate (S. typhimurium TA98; 1250 μg/plate) was 0.0 colony forming units/plate. The Individual colony counts (S. typhimurium TA98; 1250 μg/plate) was 0, the “Plate postfix code” value (S. typhimurium TA98; 1250 μg/plate) was “A P” and the Colony forming units/plate (S. typhimurium TA98; 2500 μg/plate) was 0.0 colony forming units/plate. For the same compound, the Individual colony counts (S. typhimurium TA98; 2500 μg/plate) was 0, the “Plate postfix code” value (S. typhimurium TA98; 2500 μg/plate) was “A P” and the Colony forming units/plate (S. typhimurium TA98; 5000 μg/plate) was 0.0 colony forming units/plate. The Individual colony counts (S. typhimurium TA98; 5000 μg/plate) was 0, the “Plate postfix code” value (S. typhimurium TA98; 5000 μg/plate) was “A P” and the “Reduction of CA counts” value ([1]; high dose 0.5% w/v, 22 mM) was “about 4 fold”. For the same compound, the “Reduction of CA counts” value ([1]; medium dose 0.25% w/v, 11 mM) was “about 4 fold”, the “Dose dependence of effect on PA bacterial counts” value ([2]; 0.1-0.5% w/v, Formulation C) was “dose dependent inhibitory effect” and the PA bacterial counts ([2]; high dose 0.5% w/v, 22 mM, diethylene glycol monoethyl ether (Formulation C), 24 h, FIG. 7) was “no bacteria colonies”. The “Reduction of PA counts” value ([2]; low dose 0.1% w/v, 4 mM, Formulation C, 24 h) was “about 5 fold” and the “Reduction of PA counts” value ([2]; medium dose 0.25% w/v, 11 mM, Formulation C, 24 h) was “about 5 fold”.

Reference: patent US12678412B2, “Substituted tolans for the modulation of microbial colonization” (BioMendics, LLC, priority 2017, dated 2026)
